According to patent US9102648B1, “Bioavailable diacylhydrazine ligands for modulating the expression of exogenous genes via an ecdysone receptor complex” (Intrexon Corporation, priority 2003, dated 2015):
Read-outs that look alike come from different tables or passages of the source.

Target: T1, Bombyx mori EcR (VP16 fusion, CVBE switch construct) (Bombyx mori, UniProt P49881)
T1 sequence (P49881 86-606): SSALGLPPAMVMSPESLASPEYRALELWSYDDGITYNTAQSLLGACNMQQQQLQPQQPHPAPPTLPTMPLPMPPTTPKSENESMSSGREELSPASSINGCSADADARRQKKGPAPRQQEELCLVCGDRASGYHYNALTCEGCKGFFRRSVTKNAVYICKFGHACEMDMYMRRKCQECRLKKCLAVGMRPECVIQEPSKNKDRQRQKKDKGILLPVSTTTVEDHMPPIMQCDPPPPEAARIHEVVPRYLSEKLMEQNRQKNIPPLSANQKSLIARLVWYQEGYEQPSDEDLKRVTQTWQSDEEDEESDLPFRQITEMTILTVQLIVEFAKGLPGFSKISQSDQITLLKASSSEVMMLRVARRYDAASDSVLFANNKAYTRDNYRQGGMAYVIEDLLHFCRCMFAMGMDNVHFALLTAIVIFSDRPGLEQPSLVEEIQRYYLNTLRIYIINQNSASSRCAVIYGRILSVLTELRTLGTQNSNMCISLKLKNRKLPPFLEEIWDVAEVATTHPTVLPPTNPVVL
T1 sequence (P19793 1-462 partner): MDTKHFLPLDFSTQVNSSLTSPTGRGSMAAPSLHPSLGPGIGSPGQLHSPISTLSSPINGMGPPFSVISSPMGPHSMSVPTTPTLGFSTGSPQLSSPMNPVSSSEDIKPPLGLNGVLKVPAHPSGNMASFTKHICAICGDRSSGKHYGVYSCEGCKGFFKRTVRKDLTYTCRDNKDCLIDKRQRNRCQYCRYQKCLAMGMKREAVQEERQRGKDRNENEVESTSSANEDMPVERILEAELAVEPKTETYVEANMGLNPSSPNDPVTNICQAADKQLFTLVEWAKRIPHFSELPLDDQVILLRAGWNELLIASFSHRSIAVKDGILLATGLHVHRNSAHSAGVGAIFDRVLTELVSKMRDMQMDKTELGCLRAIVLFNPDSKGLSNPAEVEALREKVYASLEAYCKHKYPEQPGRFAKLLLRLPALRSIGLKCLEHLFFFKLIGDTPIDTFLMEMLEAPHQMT
Experiment: Z3 Assay (HEK-293 cells with CVBE and 6XEcRE LacZ, β-galactosidase reporter)
Details: for Fold Induction, Z3 Assay, 33 uM: 33 uM ligand; for Fold Induction, Z3 Assay, 33 uM / Fold Induction, Z3 Assay, 3.3 uM: ligand treated / DMSO treated cells; for Fold Induction, Z3 Assay, 3.3 uM: 3.3 uM ligand; for Z3 assay Rel Max FI: maximum fold induction at any concentration relative to that of GS-E ligand; for fold induction at 3.3 µM: HEK293, read-out: Fold Induction, Z3 Assay, 3.3 uM; for fold induction at 33 µM: HEK293, read-out: Fold Induction, Z3 Assay, 33 uM

[1] = read-out: Z3 assay EC50, HEK-293 Z3 cells, β-galactosidase reporter, average of two wells

Row | SMILES | Fold Induction, Z3 Assay, 33 uM (average of two wells) | EC50 [1] [nM] | Fold Induction, Z3 Assay, 3.3 uM (average of two wells) | Z3 assay Rel Max FI (HEK-293 Z3 cells) | EC50 [nM] | fold induction at 3.3 µM | fold induction at 33 µM
1 | CC(=O)c1ccc(C(=O)NN(C(=O)c2cc(C(=O)O)cc(C(=O)O)c2)C(C)(C)C)cc1 [RG-100150] | 1 | – | – | – | – | – | –
2 | CC(O)c1ccc(C(=O)NN(C(=O)c2cc(F)cc(F)c2)C(C)(C)C)cc1 (stereo not shown) [RG-100342] | 427 | 10200 | – | – | – | – | –
3 | COc1cccc(C(=O)N(NC(=O)c2ccc3c(c2C)OCCO3)C(C)(C)C)c1 [RG-100360] | 891 | 257 | 870 | 1.073 | – | – | –
4 | Cc1c(C(=O)NN(C(=O)c2ccc(F)cc2)C(C)(C)C)ccc2c1OCCO2 [RG-100425] | 592 | 99 | 1128 | 1.180 | – | – | –
5 | Cc1c(C(=O)NN(C(=O)c2ccc(F)cc2)C(C)(C)C)ccc2c1OCO2 [RG-100448] | 423 | 2820 | – | – | – | – | –
6 | COc1ccccc1C(=O)N(NC(=O)c1ccc2c(c1)OCCO2)C(C)(C)C [RG-100492] | 143 | 8130 | – | – | – | – | –
7 | COc1cccc(C(=O)NN(C(=O)c2cc(C)cc(C)c2)C(C)(C)C)c1[N+](=O)[O-] [RG-100568] | 1193 | 3310 | 276 | 0.855 | – | – | –
8 | COc1cccc(C(=O)NN(C(=O)c2cc(C)ccc2[N+](=O)[O-])C(C)(C)C)c1C [RG-100569] | 457 | 98 | 754 | 0.835 | – | – | –
9 | CCc1c(C(=O)NN(C(=O)c2ccccc2OC)C(C)(C)C)ccc2c1OCCO2 [RG-100690] | 475 | 240 | 779 | 1.008 | – | – | –
10 | CCc1c(C(=O)NN(C(=O)c2cccc(OC)c2)C(C)(C)C)ccc2c1OCCO2 [RG-100691] | 565 | 257 | 843 | 0.945 | – | – | –
11 | COc1cccc(C(=O)NN(C(=O)c2cccc(C)c2)C(C)(C)C)c1C [RG-100694] | 1288 | 389 | 1294 | 1.157 | – | – | –
12 | CCc1c(OC)cccc1C(=O)NN(C(=O)c1ccc2c(c1)OCO2)C(C)(C)C [RG-100699] | 415 | 2090 | – | – | – | – | –
13 | CCc1c(OC)cccc1C(=O)NN(C(=O)c1ccccc1OC)C(C)(C)C [RG-100725] | 511 | – | – | – | – | – | –
14 | COc1ccc(OC)c(C(=O)N(NC(=O)c2cccc(C)c2C)C(C)(C)C)c1 [RG-100763] | 151 | 2140 | – | – | – | – | –
15 | COc1ccc(C)cc1C(=O)N(NC(=O)c1cccc(OC)c1C)C(C)(C)C [RG-100766] | 474 | 174 | 921 | 1.194 | – | – | –
16 | COc1cc(C)cc(C(=O)N(NC(=O)c2cccc(OC)c2C)C(C)(C)C)c1 [RG-100767] | 371 | 251 | 825 | 0.996 | – | – | –
17 | CC(C)(C)N(NC(=O)c1ccc(Cl)cc1)C(=O)c1ccccc1 [RG-100864] | – | – | – | – | 2240 | 63 | 840
18 | COc1cccc(C(=O)NN(C(=O)c2cc(Cl)c(F)c(Cl)c2)C(C)(C)C)c1C [RG-101382, N-(3-methoxy-2-methylbenzoyl)-N′-(3,5-dichloro-4-fluorobenzoyl)-N′-tert-butylhydrazine] | – | – | – | 0.951 | 66 | 725 | 426

Row | SMILES | Fold Induction, Z3 Assay, 33 uM (average of two wells) | EC50 [1] [nM] | Fold Induction, Z3 Assay, 3.3 uM (average of two wells) | Z3 assay Rel Max FI (HEK-293 Z3 cells) | EC50 [nM] | fold induction at 3.3 µM | fold induction at 33 µM
19 | CCc1c(C(=O)NN(C(=O)c2cc(C)cc(Cl)c2)C(C)(C)C)ccc2c1OCCO2 [RG-101494, N-(5-ethyl-1,4-benzodioxan-6-carbonyl)-N′-(tert-butyl)-N′-(3-chloro-5-methylbenzoyl)hydrazine] | – | – | – | 1.093 | 79 | 832 | 384
20 | CCc1ccc(C(=O)NN(C(=O)c2cc(C)cc(C)c2)C(C)(C)C)c(F)c1 [RG-101523, 3,5-Dimethyl-benzoic acid N-tert-butyl-N′-(4-ethyl-2-fluoro-benzoyl)-hydrazide] | – | – | – | – | 242 | 704 | 596
21 | CCc1ccc(C(=O)NN(C(=O)c2cc(C)cc(C)c2)C(C)(C)C)cc1 [RG-102125] | – | – | – | – | 174 | – | –
22 | CCc1c(OC)cccc1C(=O)NN(C(=O)c1cc(C)cc(C)c1)C(C)(C)C [RG-102240, N-(3-methoxy-2-ethylbenzoyl)-N′-(3,5-dimethylbenzoyl)-N′-tert-butylhydrazine] | – | – | – | 1 | 286 | – | –
23 | Cc1cc(C)cc(C(=O)N(NC(=O)c2ccc3c(c2C)OCCO3)C(C)(C)C)c1 [RG-102317, N-(5-methyl-1,4-benzodioxan-6-carbonyl)-N′-(tert-butyl)-N′-(3,5-dimethylbenzoyl)hydrazine] | – | – | – | – | – | 416 | 1500
24 | COc1cccc(C(=O)NN(C(=O)c2cc(C)cc(C)c2)C(C)(C)C)c1C [RG-102398] | – | – | – | 1.027 | 95 | 535 | 1970
25 | CCC(N(NC(=O)c1cccc(C)c1C)C(=O)c1cc(C)cc(C)c1)C(C)(C)C (stereo not shown) [RG-103309, 3,5-dimethyl-benzoic acid N′-(2,3-dimethyl-benzoyl)-N-(1-ethyl-2,2-dimethyl-propyl)-hydrazide] | – | – | – | 0.950 | 78 | 1160 | 591
26 | COc1cc(C(=O)N(NC(=O)c2ccc3c(c2C)OCCO3)C(C)(C)C)cc(OC)c1O [RG-115009, 4-Hydroxy-3,5-dimethoxy-benzoic acid N-tert-butyl-N′-(5-methyl-2,3-dihydro-benzo[1,4]dioxine-6-carbonyl)-hydrazide] | – | – | – | 0.916 | 3310 | 35 | 472
27 | CCOC(=O)C(C)(C)N(NC(=O)c1cccc(OC)c1CC)C(=O)c1cc(C)cc(C)c1 [RG-115025, 2-[N-(3,5-dimethyl-benzoyl)-N′-(2-ethyl-3-methoxy-benzoyl)-hydrazino]-2-methyl-propionic acid ethyl ester] | – | – | – | 0.385 | 347 | 269 | 489
28 | CCc1c(OC)cccc1C(=O)NN(C(=O)c1c(F)cccc1F)C(C)(C)C [RG-115033] | 388 | 16200 | 24 | 0.575 | – | – | –
29 | CCc1c(OC)cccc1C(=O)NN(C(=O)c1cc(C)cc(C)c1)C(C)(C)C(=O)O [RG-115044, 2-[N-(3,5-Dimethyl-benzoyl)-N′-(2-ethyl-3-methoxy-benzoyl)-hydrazino]-2-methyl-propionic acid] | – | – | – | 1.08 | > 50000 | 1 | 7
30 | CCc1c(C(=O)NN(C(=O)c2ccccc2)C(C)(C)C)ccc2c1OCOC2 [RG-115046] | 754 | 3550 | – | – | – | – | –
31 | COc1cc(C(=O)N(NC(=O)c2ccc3c(c2C)CCCO3)C(C)(C)C)cc(OC)c1C [RG-115055] | 617 | 43 | 573 | 0.936 | – | – | –
32 | CCc1c(C(=O)NN(C(=O)c2ccccc2OC)C(C)(C)C)ccc2c1OCOC2 [RG-115065] | 878 | 1480 | – | – | – | – | –
33 | CCc1c(C(=O)NN(C(=O)c2ccc(Cl)cc2OC)C(C)(C)C)ccc2c1OCO2 [RG-115085] | 627 | 195 | – | – | – | – | –
34 | COc1cc(C(=O)N(NC(=O)c2ccc3c(c2C)OCCO3)C(C)(C)C#N)cc(OC)c1C [RG-115092, N-(5-methyl-1,4-benzodioxan-6-carbonyl)-N′-(2-cyano-2-propyl)-N′-(3,5-dimethoxy-4-methylbenzoyl)hydrazine] | – | – | – | 0.917 | 37 | 351 | 302
35 | COc1ccccc1C(=O)N(NC(=O)c1ccc2c(c1C)CCCO2)C(C)(C)C [RG-115102] | 865 | 139 | 88 | 0.858 | – | – | –
